Laboratory results taken from ChEMBL document CHEMBL1145240, “Discovery of novel conformationally constrained tropane-based biaryl and arylacetylene ligands as potent and selective norepinephrine transporter inhibitors and potential antidepressants” (Bioorg Med Chem Lett, 2005).
pKi: −log10 of the molar value.

What was measured:
[1] = target: Muscarinic acetylcholine receptor; experiment: Inhibition of [3H]QNB binding to muscarinic receptor of rat cortex
[2] = target: Sodium-dependent serotonin transporter (Rattus norvegicus, UniProt P31652); experiment: Inhibitory constant against reuptake of [3H]5-HT at serotonin transporter of rat […]; assay type: tissue-based
Chain of Sodium-dependent serotonin transporter (P31652 whole entry): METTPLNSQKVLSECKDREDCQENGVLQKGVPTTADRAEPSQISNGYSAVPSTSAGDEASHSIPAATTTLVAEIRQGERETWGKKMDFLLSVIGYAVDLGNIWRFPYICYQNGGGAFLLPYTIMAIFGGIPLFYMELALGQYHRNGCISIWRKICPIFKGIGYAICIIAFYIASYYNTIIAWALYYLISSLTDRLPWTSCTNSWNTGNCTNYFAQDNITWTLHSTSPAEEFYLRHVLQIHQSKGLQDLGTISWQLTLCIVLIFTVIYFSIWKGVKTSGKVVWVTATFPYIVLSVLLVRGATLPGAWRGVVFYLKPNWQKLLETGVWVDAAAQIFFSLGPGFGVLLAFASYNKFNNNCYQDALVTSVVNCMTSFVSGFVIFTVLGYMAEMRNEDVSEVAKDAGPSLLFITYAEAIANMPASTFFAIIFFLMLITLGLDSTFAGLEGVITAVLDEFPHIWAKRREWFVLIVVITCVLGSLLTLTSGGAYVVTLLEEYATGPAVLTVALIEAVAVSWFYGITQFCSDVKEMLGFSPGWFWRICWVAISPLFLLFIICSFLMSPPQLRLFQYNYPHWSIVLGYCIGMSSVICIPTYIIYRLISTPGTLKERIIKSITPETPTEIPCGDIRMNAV

[3] = target: Sodium-dependent dopamine transporter (Rattus norvegicus, UniProt P23977); experiment: Inhibitory constant against reuptake of [3H]-DA at dopamine transporter of rat striatal membranes; assay type: cell membranes, Membrane
Chain of Sodium-dependent dopamine transporter (P23977 whole entry): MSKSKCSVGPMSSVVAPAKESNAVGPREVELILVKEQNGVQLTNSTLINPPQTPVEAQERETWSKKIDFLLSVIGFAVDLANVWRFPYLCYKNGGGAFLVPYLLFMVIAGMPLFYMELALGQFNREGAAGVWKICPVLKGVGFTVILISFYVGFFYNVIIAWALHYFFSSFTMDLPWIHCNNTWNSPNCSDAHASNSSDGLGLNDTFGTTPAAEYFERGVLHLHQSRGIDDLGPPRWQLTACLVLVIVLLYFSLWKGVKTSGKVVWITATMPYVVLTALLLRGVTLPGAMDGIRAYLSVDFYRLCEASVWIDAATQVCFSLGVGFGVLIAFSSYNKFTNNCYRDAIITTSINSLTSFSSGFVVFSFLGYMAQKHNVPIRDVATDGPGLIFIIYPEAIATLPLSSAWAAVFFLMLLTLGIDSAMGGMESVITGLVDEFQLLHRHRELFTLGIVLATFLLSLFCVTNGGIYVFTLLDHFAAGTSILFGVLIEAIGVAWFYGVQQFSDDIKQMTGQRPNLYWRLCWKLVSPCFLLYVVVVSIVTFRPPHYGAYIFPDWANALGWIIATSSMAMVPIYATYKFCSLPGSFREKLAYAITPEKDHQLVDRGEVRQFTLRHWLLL

[4] = target: T1, Norepinephrine transporter (Rattus norvegicus, UniProt Q9WTR4); experiment: Inhibitory constant against reuptake of [3H]NE at norepinephrine transporter of rat parietal-occipital cortex
T1 sequence (Q9WTR4 whole entry): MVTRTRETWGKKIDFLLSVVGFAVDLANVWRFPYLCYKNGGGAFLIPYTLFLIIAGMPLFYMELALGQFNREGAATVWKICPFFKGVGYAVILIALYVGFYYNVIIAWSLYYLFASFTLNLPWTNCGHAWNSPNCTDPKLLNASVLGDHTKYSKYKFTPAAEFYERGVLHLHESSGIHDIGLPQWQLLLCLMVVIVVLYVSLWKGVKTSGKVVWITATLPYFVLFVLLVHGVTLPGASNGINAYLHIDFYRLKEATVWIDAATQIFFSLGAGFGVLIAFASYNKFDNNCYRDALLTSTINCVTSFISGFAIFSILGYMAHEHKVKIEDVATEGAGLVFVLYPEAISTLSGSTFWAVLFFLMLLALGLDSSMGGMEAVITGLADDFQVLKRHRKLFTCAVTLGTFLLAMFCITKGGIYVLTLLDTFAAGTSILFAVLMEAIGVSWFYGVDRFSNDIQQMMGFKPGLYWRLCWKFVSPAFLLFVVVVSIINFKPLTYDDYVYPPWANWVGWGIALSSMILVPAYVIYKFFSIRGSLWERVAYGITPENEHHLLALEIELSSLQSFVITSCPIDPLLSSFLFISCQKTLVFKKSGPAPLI

[5] = target: T1, Norepinephrine transporter; experiment: Inhibitory constant for [3H]NE reuptake at norepinephrine transporter of rat parietal-occipital cortex

SMILES | Ki [1] [nM] | pKi [2] | pKi [3] | pKi [4] | pKi [5]
COC(=O)C1C2CC3CCC1N3C/C2=C\c1ccc(-c2ccccc2F)cc1 (configuration not stated) | > 10000 | 6.33 | 5.47 | 6.41 | –
COC(=O)C1C2CC3CCC1N3C/C2=C\C#Cc1cccc(F)c1 (configuration not stated) | 13500 | 6.50 | < 5.00 | 5.68 | –
COC(=O)C1C2CC3CCC1N3C/C2=C\C#Cc1ccccc1 (configuration not stated) | 11900 | 6.68 | < 5.00 | < 5.00 | –
COC(=O)C1C2CC3CCC1N3C/C2=C\C#Cc1ccsc1 (configuration not stated) | 2740 | 7.07 | < 5.00 | – | 7.66
COC(=O)C1C2CC3CCC1N3C/C2=C\C#Cc1ccc(F)c(F)c1 (configuration not stated) | 7090 | 7.16 | 5.50 | 6.96 | –
COC(=O)C1C2CC3CCC1N3C/C2=C\c1ccc(-c2cccc(C(F)(F)F)c2)cc1 (configuration not stated) | 7060 | 5.93 | 6.25 | 8.06 | –
COC(=O)C1C2CC3CCC1N3C/C2=C\c1ccc(-c2ccsc2)s1 (configuration not stated) | 2140 | 7.49 | 6.94 | 8.23 | –
COC(=O)C1C2CC3CCC1N3C/C2=C\C#Cc1c(F)cccc1F (configuration not stated) | > 10000 | 7.49 | < 5.00 | 8.28 | –
COC(=O)C1C2CC3CCC1N3C/C2=C\c1ccc(-c2cccc(F)c2)cc1 (configuration not stated) | > 10000 | 6.86 | 6.19 | 8.30 | –
COC(=O)C1C2CC3CCC1N3C/C2=C\c1ccc(-c2cccc(OC)c2)cc1 (configuration not stated) | 4060 | 6.46 | 6.94 | 8.03 | –
COC(=O)C1C2CC3CCC1N3C/C2=C\C#Cc1cc(F)ccc1F (configuration not stated) | > 10000 | 6.67 | < 5.00 | 5.76 | –
COC(=O)C1C2CC[C@@H]3C[C@@H]1/C(=C/c1ccc(-c4cc(F)cc(F)c4)cc1)CN23 (some centres not stated) | 2830 | 8.92 | 6.64 | 8.89 | –
COC(=O)C1C2CC[C@@H]3C[C@@H]1/C(=C/c1ccc(-c4ccc(F)c(F)c4)cc1)CN23 (some centres not stated) | 3400 | 6.53 | 6.97 | 9.10 | –
COC(=O)C1C2CC3CCC1N3C/C2=C\c1ccc(-c2ccc(SC)cc2)s1 (configuration not stated) | > 10000 | – | – | – | –
COC(=O)C1C2CC3CCC1N3C/C2=C\c1ccc(-c2ccc(SC)cc2)cc1 (configuration not stated) | > 10000 | 5.97 | 5.98 | 7.21 | –
COC(=O)C1C2CC3CCC1N3C/C2=C\C#Cc1cccs1 (configuration not stated) | 13900 | 6.85 | < 5.00 | 5.80 | –
COC(=O)C1C2CC3CCC1N3C/C2=C\C#Cc1ccc(C)c(F)c1 (configuration not stated) | > 10000 | 6.04 | 5.15 | 7.28 | –
COC(=O)C1C2CC3CCC1N3C/C2=C\c1ccc(-c2ccccc2OC)cc1 (configuration not stated) | > 10000 | 5.87 | 6.10 | 8.19 | –
COC(=O)C1C2CC3CCC1N3C/C2=C\C#Cc1ccc(F)cc1 (configuration not stated) | 15100 | 7.77 | < 5.00 | 6.98 | –
COC(=O)C1C2CC3CCC1N3C/C2=C\c1ccc(-c2ccc(F)cc2)cc1 (configuration not stated) | 1060 | 5.86 | 6.79 | 7.28 | –
